The results in this text go back to BindingDB's records for doi:10.7270/Q2B27SQ0 (Nmmlsc, 2008).

The target of the first assay is Apoptosis regulator Bcl-2 (Homo sapiens, UniProt P10415). Put plainly: PubChem AID 950.
Chain of Apoptosis regulator Bcl-2 (P10415 whole entry): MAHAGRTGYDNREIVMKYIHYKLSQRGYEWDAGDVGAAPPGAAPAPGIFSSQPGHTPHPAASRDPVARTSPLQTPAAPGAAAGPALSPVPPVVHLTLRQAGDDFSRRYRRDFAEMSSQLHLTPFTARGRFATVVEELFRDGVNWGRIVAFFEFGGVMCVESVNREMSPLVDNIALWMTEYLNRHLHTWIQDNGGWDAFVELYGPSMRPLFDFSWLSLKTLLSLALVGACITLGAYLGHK
Conditions: not given
`c1ccc(-c2nc(N3CCOCC3)[s+]n2-c2ccccc2)cc1` showed an EC50 of 13.8 µM.

For `CCC(/C=C1\Sc2ccc(OC)cc2N1CCO)=C\c1sc2ccc(OC)cc2[n+]1CCO`, the EC50 was 16.1 µM. Same read-out and setting: under `CC(=NNC(=O)c1cc(O)c(O)c(O)c1)c1ccc([N+](=O)[O-])cc1` [SMR000312589] stands 5.96 µM; under `O=[N+]([O-])c1ccc(N=NCc2ccc(O)c(O)c2O)c(S(=O)(=O)N2CCOCC2)c1` [MLS000336720], 4.66 µM.

In turn, `CN1CCc2cccc3c2[C@@H]1Cc1ccc(O)c(O)c1-3` showed an EC50 of 16.1 µM.

Still in this assay, the particulars now being: inactive by the depositor's call.
With `COc1ccc(C2=Nn3c(nnc3-c3ccco3)SC2)cc1OC` [6-(3,4-Dimethoxy-phenyl)-3-furan-2-yl-7H-[1,2,4]triazolo[3,4-b][1,3,4]thiadiazine], the EC50 stood at 1.21 µM.

`CCOC(=O)C1=C(Cc2ccc(OC)cc2)C(=O)c2ccccc2C1=O` [SMR000136995] returned an EC50 of 13.6 µM. Molecule `C/C(=C\c1ccco1)C1Nc2cccc3cccc(c23)N1` [MLS000055728] gave a half-maximal effective concentration (EC50) of 14.2 µM. `CCOC(=O)c1c(O)nc2ccc(Cl)c3c2c1-c1ccccc1C3=O` [MLS000704595] yielded an EC50 of 7.65 µM. `Cc1ccc(-c2ccc(/C=C3\SC(N4CCOCC4)=NC3=O)o2)cc1` [(5Z)-5-[[5-(4-methylphenyl)-2-furanyl]methylidene]-2-(4-morpholinyl)-4-thiazolone]: the EC50 stood at 44.6 µM.

With `COc1ccc(/C=C/C(=O)c2cc(Br)ccc(=O)c2O)cc1` [MLS000702099], the EC50 turned out to be 33.6 µM. Molecule `Cc1cc2n(c1)CCn1c(C)ccc1-2` [MLS000104384] yielded an EC50 of 15.9 µM. The molecule `O=C(Nc1ccc2nc(-c3ccco3)c(-c3ccco3)nc2c1)N1CCN(c2ccccn2)CC1` displayed an EC50 of 8.86 µM. The molecule `O=C(/C=C/c1ccccc1Cl)c1ccccc(=O)c1O` [3-[(E)-3-(2-chlorophenyl)prop-2-enoyl]-2-oxidanyl-cyclohepta-2,4,6-trien-1-one] displayed an EC50 of 15 µM. The same measure, in the same setting: as for `O=C1c2ccccc2-c2onc3ccc(NCc4ccco4)c1c23` [MLS000080234], the figure is 37.8 µM. In the case of `Nc1ccc(C2=Nc3cccc4cccc(c34)N2)cc1` [SMR000175908], a half-maximal effect (EC50) was put at 18.1 µM. In turn, `O=C(NC1=C(Nc2ccc(Cl)cc2)C(=O)c2ccccc2C1=O)c1ccccc1` returned an EC50 of 17.9 µM.

As to `c1coc(C2=Nc3cccc4cccc(c34)N2)c1` [2-(2-furanyl)-1H-perimidine], the EC50 came to 9.76 µM. In turn, `Cc1nc2ncccn2c1-c1csc(Nc2ccccc2)n1` [4-(2-methyl-3-imidazo[1,2-a]pyrimidinyl)-N-phenyl-2-thiazolamine] displayed an EC50 of 8.93 µM. Molecule `Cc1ccc(C=NNC(=O)CSc2nnc(-c3ccc(Cl)cc3)n2-c2ccccc2)o1` [SMR000218122] displayed an EC50 of 8.45 µM.

The molecule `O=C1c2ccccc2-c2onc3ccc(N4CCCC4)c1c23` [SMR000279741] displayed an EC50 of 27.9 µM.

Consider `Cc1ccc(NC2=C(NC(=O)c3ccccc3)C(=O)c3ccccc3C2=O)cc1Cl` [MLS000392290], for which a half-maximal effect (EC50) was put at 4.38 µM. Turning to `c1ccc(-c2nc(N3CCCCCC3)c3ccccc3n2)nc1` [SMR000046752], the EC50 worked out at 19.8 µM.

On to `Cc1cc(-c2csc(N)n2)c(C)n1C` [4-(1,2,5-trimethyl-3-pyrrolyl)-2-thiazolamine], for which the EC50 stood at 46.3 µM. The same measure, in the same setting: as for `CCOc1ccccc1CNc1ccc(O)cc1`, the figure is 3.63 µM; as for `Cc1ccc(-c2ccc(/C=C/C(=O)c3ccccc3)o2)cc1`, 8.47 µM. `O=C1C(=Cc2ccco2)NC(=S)N1c1ccccc1` [(5E)-5-(furan-2-ylmethylidene)-3-phenyl-2-sulfanylideneimidazolidin-4-one] displayed an EC50 of 27.2 µM. `COc1cc(C2Nc3cccc4cccc(c34)N2)ccc1OC(C)=O` [Acetic acid 4-(2,3-dihydro-1H-perimidin-2-yl)-2-methoxy-phenyl ester] showed an EC50 of 11.4 µM.
